PubChem BioAssay (NCI)
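Five compound concentrations were applied to cells in 96-well plates for 48 hours; endpoints were derived by simple linear interpolation of the resulting dose-response curve. Abbreviation: GI50, concentration required for 50% inhibition of growth. TGI: concentration producing complete growth inhibition.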

What was measured:
Assay in all cases: NCI anticancer screen, dose series, 48 h
COLO 205 colon = tested on: COLO 205 colon
U251 CNS = tested on: U251 CNS
SK-MEL-2 melanoma = tested on: SK-MEL-2 melanoma
RPMI-8226 leukemia = tested on: RPMI-8226 leukemia
CAKI-1 renal = tested on: CAKI-1 renal
SNB-75 CNS = tested on: SNB-75 CNS
KM12 colon = tested on: KM12 colon
MDA-MB-435 = tested on: MDA-MB-435
MCF7 breast = tested on: MCF7 breast
DU-145 prostate = tested on: DU-145 prostate

SMILES | TGI (COLO 205 colon) [µM] | TGI (U251 CNS) [µM] | TGI (SK-MEL-2 melanoma) [µM] | TGI (RPMI-8226 leukemia) [µM] | TGI (CAKI-1 renal) [µM] | TGI (SNB-75 CNS) [µM] | TGI (KM12 colon) [µM] | GI50 (MDA-MB-435) [µM] | TGI (MDA-MB-435) [µM] | GI50 (MCF7 breast) [µM] | TGI (MCF7 breast) [µM] | GI50 (COLO 205 colon) [µM] | GI50 (U251 CNS) [µM] | GI50 (SK-MEL-2 melanoma) [µM] | GI50 (DU-145 prostate) [µM] | TGI (DU-145 prostate) [µM] | GI50 (CAKI-1 renal) [µM] | GI50 (SNB-75 CNS) [µM] | GI50 (KM12 colon) [µM] | GI50 (RPMI-8226 leukemia) [µM]
CSc1nc2nn(Cc3ccccc3)cc2c(=O)[nH]1 | > 100 | > 100 | > 100 | > 100 | > 100 | > 100 | > 100 |  |  |  |  |  |  |  |  |  |  |  |  | 
COc1cc(-c2nc3sc(C)cn3c2/C=C2\C(=O)Nc3ccccc32)c(Br)c(OC)c1OC | 66.2 | 54.8 | > 100 |  | 57 | 51.5 | 49.5 | 4.88 | 23.2 | 5.81 | 43.3 | 25.7 | 22.9 | 33.6 | 28.5 | 72.4 | 22.6 | 22.2 | 17.5 | 
O=C(OCCCl)C1OC(n2cc(F)c(=O)[nH]c2=O)CC1O (configuration not stated) | > 100 | > 100 | > 100 | > 100 |  | > 100 | > 100 |  |  |  |  |  |  |  |  |  |  |  |  | 
CC1=NN(C(=O)Nc2ccc(Cl)cc2)C(=O)C2CCC(=O)N12 (configuration not stated) | > 100 | > 100 | > 100 | > 100 | > 100 | > 100 | > 100 |  |  |  |  |  |  |  |  |  |  |  |  | 
O=C(/C=C/c1ccccc1O)c1ccc([N+](=O)[O-])cc1 | 27.4 | 28.5 | 66.8 |  | 39.1 | 31.6 | 40.4 |  |  |  |  |  |  |  |  |  |  |  |  | 
c1ccncc1 | > 100 | > 100 | > 100 | > 100 | > 100 | > 100 | > 100 |  |  |  |  |  |  |  |  |  |  |  |  | 
O=C(Cc1nc2ccccc2o1)C(=O)Nc1cccc(Cl)c1 | > 100 | > 100 | > 100 |  | > 100 | > 100 | > 100 |  |  |  |  |  |  |  |  |  |  |  |  | 
Cc1cc(N2CCCCC2)nc(NC2CCCC(Nc3ccnc4cc(Cl)ccc34)C2)n1 (configuration not stated) | 2.98 |  |  | 2.56 |  | 3.18 | 3.52 | 1.32 | 2.73 |  |  | 1.44 |  |  | 1.45 | 3.1 |  | 1.39 | 1.79 | 0.472
CC(=O)CC/C=C(\C)[C@H](O)[C@H](C)C(=O)O[C@H]1C[C@H](C)C=C2C=C[C@@]3(C)O[C@@H](O)CC(=O)[C@]3(C)[C@H]21 | 2.03 | 2.8 | 1.91 | 2.25 |  | 2.61 | 2.54 | 0.508 | 2.09 | 0.5 | 6.19 | 0.425 | 0.384 | 0.419 | 0.332 | 4.16 |  | 0.686 | 0.308 | 0.308
CC(=O)O[C@H]1CCN2C(=O)C=CC(OCc3ccccc3)C12 (some centres not stated) | > 100 | > 100 | > 100 | > 100 | > 100 | > 100 | > 100 |  |  |  |  |  |  |  |  |  |  |  |  | 
OCC[N+]12CCCN1CCC2 | > 100 | > 100 | > 100 |  | > 100 | > 100 | > 100 |  |  |  |  |  |  |  |  |  |  |  |  | 
Cc1ccc(NC(=O)CC/C(CC(=O)C(C)(C)C)=N\NC(=O)C[n+]2ccccc2)cc1C | > 100 | > 100 | > 100 | > 100 | > 100 | > 100 | > 100 |  |  |  |  |  |  |  |  |  |  |  |  | 
CCOc1ccc(/C=C/c2cc(OC)c(OC)c(OC)c2)cc1 | 2.5 | 13.2 | 20.7 | > 100 | 24.1 | > 64.1 | > 41.6 |  |  |  |  |  |  |  |  |  |  |  |  | 
CN(C)CCCSc1ccccc1NC1=C(Cl)C(=O)C(Nc2ccccc2SCCCN(C)C)=C(Cl)C1=O | 4.03 | 3.69 | 5.48 | 5.62 |  | 23.2 | 4.09 | 2.06 | 4.52 | 1.65 | 3.94 | 2.08 | 2.12 | 2.3 | 1.76 | 3.23 |  | 11.1 | 1.89 | 2.35
COc1cc([N+](=O)[O-])c(OC)cc1-c1nc2sc(C)cn2c1/C(N)=N/C(=N)N | > 100 | > 100 |  | > 100 | > 100 | > 100 | 11.1 | 16.1 | > 100 | 3.92 | > 100 | > 100 | 6.49 |  | 16.1 | > 100 | > 100 | > 100 | 2.24 | 84.1
CC1(C)N=C(N)N=C(N)N1c1ccc(OCCCNC(=O)Nc2cccc(S(=O)(=O)F)c2)c(Cl)c1 | > 100 | > 100 |  | > 100 | > 100 | > 100 | > 100 | 2.14 | > 100 | 3.82 | > 100 | 12.5 | 0.777 |  | 2.87 | > 100 | 30.3 | 2.73 | 4.53 | 41.4
CN(C)CCC(CCN(C)C)=NO | > 100 | > 100 | > 100 | > 100 | > 100 | > 100 | > 100 |  |  |  |  |  |  |  |  |  |  |  |  | 
Oc1ccc2ccccc2c1N=Nc1cc(Cl)ccc1Cl | > 50 | 22 | > 50 | > 50 | > 50 | 23.9 | > 50 |  | > 50 |  |  |  |  |  |  |  |  |  |  | 
N#CCC(=O)N/N=C1/C(=O)N(c2cc(Cl)ccc2Cl)C(=O)C(=O)C1c1nc2ccccc2s1 (configuration not stated) | > 100 | > 100 | > 100 | > 100 | 94.4 | > 100 | > 100 |  |  |  |  |  |  |  |  |  |  |  |  | 
O=C(N/C(=C\c1cccc([N+](=O)[O-])c1)c1nc2ccccc2[nH]1)c1ccccc1 | > 100 | > 100 | > 100 | > 100 | > 100 | > 100 | > 100 |  |  |  |  |  |  |  |  |  |  |  |  | 
